Here are results for 3 compounds from patent US6414114B2, “Disulfides and thiol compounds” (Dovetail Technologies, Inc., priority 1998, dated 2002).

Data set [1] is described as follows: Solubility in acetonitrile/water. In kind it is physicochemical. Conditions: solvent acetonitrile/water as given in the value.
The test system of another data set is NS-1 mouse myeloma. Conditions: repeated administration as monotherapy soon after inoculation with relatively low doses of tumor; cited from earlier work.
A further data set relates to Cloudman S-91 melanoma. Conditions: melanomas already established; cited from earlier work.
The next data set relates to B16 melanoma. Conditions: administered along with cyclophosphamide; cited from earlier work.
The next data set has as its system MOPC-315 myeloma. To be noted: administered along with melphalan; cited from earlier work.

`O=C(CCNC(=O)OCc1ccccc1)NC(CS)C(=O)O` (stereo not drawn) [Cbz-beta-Ala-Cys]: the Solubility result in data set [1] was “Soluble in 20% Acetonitrile/Water”.
With `O=C(CCNC(=O)OCc1ccccc1)N[C@@H](CSSC[C@H](NC(=O)CCNC(=O)OCc1ccccc1)C(=O)O)C(=O)O` [Cbz-βAla-Cystine-βAla-Cbz, Cbz-beta-Ala-Cystine-beta-Ala-Cbz], the Solubility entry in data set [1] is reported as “Soluble in 30% Acetonitrile/water”.
Take `NCCC(=O)NCCSSCCNC(=O)CCN` [β-alethine, Beta-alanyl cysteamine disulfide]: the survival rates entry in the data set with NS-1 mouse myeloma is given as “significantly increased survival rates”. In addition, the percent survival entry in the data set on Cloudman S-91 melanoma is “increase the percent survival”. Moreover, the “benefit as adjunct to chemotherapy” value in the data set on B16 melanoma and in the data set with MOPC-315 myeloma was “beneficial adjunct to chemotherapy” throughout.
